Results: patent US20140094465A1, “Compounds as S-Nitrosoglutathione Reductase Inhibitors” (N30 PHARMACEUTICALS, INC., priority 2011, published 2014)
Like-named read-outs stand apart in the source and are kept apart here.

Legend:
[1] = target: T1, S-nitrosoglutathione reductase (GSNOR) (Homo sapiens, UniProt P11766); experiment: GSNOR assay (inhibition of GSNOR activity, NADH absorbance at 340 nm); format: biochemical
T1 construct: made in house; host or cells: E. coli
Procedure, shortened: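 Recombinant GSNOR purified from E. coli, tag removed. Final conditions: 100 mM NaPO4 pH 7.4, 0.240 mM GSNO, 0.300 mM NADH, 0.5 μg/mL enzyme, 1% DMSO; NADH loss followed as 340 nm absorbance change over 3 min at 25 °C. Compounds 100–0.003 μM, triplicate; IC50 by curve analysis.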

GSNOR and NAD+ = target: T2, GSNOR and NAD+ (Homo sapiens, UniProt P11766); experiment: X-ray crystallography of inhibitor bound to GSNOR and NAD+, distance measurement; conditions: crystal structure bound to GSNOR and NAD+; O atom of hydroxyl to C atom of carbonyl
T2 construct: made in house; host or cells: E. coli
T2 sequence (P11766 whole entry): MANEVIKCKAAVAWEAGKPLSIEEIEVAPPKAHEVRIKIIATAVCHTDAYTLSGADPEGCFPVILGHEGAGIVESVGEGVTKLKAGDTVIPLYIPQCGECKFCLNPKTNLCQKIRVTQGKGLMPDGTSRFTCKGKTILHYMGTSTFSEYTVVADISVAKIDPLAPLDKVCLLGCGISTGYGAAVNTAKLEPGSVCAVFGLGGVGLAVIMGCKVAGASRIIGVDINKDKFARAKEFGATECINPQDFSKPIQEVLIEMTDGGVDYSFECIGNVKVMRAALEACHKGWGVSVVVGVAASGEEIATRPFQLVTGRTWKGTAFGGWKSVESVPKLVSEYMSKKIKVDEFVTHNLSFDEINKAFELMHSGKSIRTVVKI
Excerpt: Single crystal x-ray diffraction is a method useful to understanding the 3-dimensional structure of the binding pocket. The solved crystal structures offer significant information about the GSNOR binding pocket and the interactions of the inhibitors within the binding site. The crystal structure of the ternary complex of GSNOR, NAD+, and Compound IV-10 (Table 4, Example 1) (4-(7-hydroxy-4-oxo-2-(trifluoromethyl)-4H-chromen-3-yl)benzoic acid) was solved. The enzyme-ligand complex crystallized as a homodimer with Compound IV-10 binding to each GSNOR monomer. The key pharmacophores identified from the ternary complex of GSNOR inhibitor with GSNOR and NAD+ are the hydroxyl group on the bicyclic ring of Compound IV-10, which hydrogen bonds to histidine 66, cysteine 44, cysteine 173 and threonine 46. This hydroxyl group is also part of the Zn complex to histidine 66, cysteine 44, and cysteine 173 and threonine 46. The carboxylic acid of Compound IV-10 hydrogen bonds to the glutamine 111 and forms a salt bridge with lysine 283. […]
Once the crystal structures were solved, a distance measurement was made. […] For the second crystal structure with Compound V-1 bound to GSNOR and NAD+, the distance between the hydroxyl group and the carboxylic acid found to be 12.34 Å (measured in the same manner as described above). […]

[2] = system: dextran sodium sulfate (DSS)-induced IBD; experiment: Acute prophylactic model of DSS-induced IBD; format: in vivo, mouse
Excerpt: Acute and chronic models of dextran sodium sulfate (DSS)-induced IBD in mice were used to explore efficacy of GSNORi against this disease. Acute and chronic DSS-induced IBD are widely used and well characterized models that induce pathological changes in the colon similar to those observed in the human disease. In these models and in human disease, epithelial cells within the crypts of the colon are disrupted, leading to dysfunction of the epithelial barrier and the ensuing tissue inflammation, edema, and ulceration. GSNORi therapy may benefit IBD by restoring s-nitrosoglutathione (GSNO) levels, and thus prevent or reverse the epithelial barrier dysfunction. Experimental IBD was induced by administration of DSS in the drinking water of male C57Bl/6 mice (N=8 to 10 mice per group) for 6 consecutive days. GSNORi was dosed orally at doses of 0.1 to 10 mg/kg/day for 10 days starting two days prior to and continuing two days post DSS exposure. […] Levels of circulating cytokines involved in inflammatory pathways were also assessed. The effect of GSNORi was compared to vehicle treated controls. […] Naïve mice (N=5) were also assessed as a normal tissue control.

[3] = system: cigarette smoke-induced COPD; experiment: Acute (4 day) cigarette smoke exposure COPD model; format: in vivo, mouse; conditions: acute 4 day smoke model
Description: The efficacy of GSNOR inhibitors was assessed in a mouse model of chronic obstructive pulmonary disease (COPD) induced by short duration (4 days or 11 days) of exposure to cigarette smoke. Infiltration of inflammatory cells into the bronchoalveolar lavage fluid (BALF) and BALF levels of chemokines involved in inflammation and tissue turnover/repair were measured to assess the influences of GSNOR inhibitors on some of the early events associated with the initiation and progression of COPD.
Efficacy of GSNOR inhibitors against COPD was explored using acute (4 day) and subchronic (11 day) models of cigarette smoke-induced COPD in mice. […] In animal models, changes in lung pathology are only evident after extended (several months) duration of exposure to cigarette smoke, thus making chronic models prohibitive as effective screening tools. More recently, models exploring inflammatory responses after short duration (2 weeks or less) of smoke exposure in mice have been utilized as tools for screening efficacy and mechanisms of action of novel therapeutics against COPD. The key roles of inflammation in the initiation and progression of COPD, make these short duration models relevant for initial tests of efficacy of novel therapeutics.
Female C57Bl/6 mice (N=8 per group) were exposed to cigarette smoke using a whole body exposure chamber. Mice were exposed daily for 4 consecutive days to 4 cycles of smoke from 6 sequential cigarettes (Kentucky 3R4F without filter) with a 30 minute smoke free interval between cycles. GSNOR inhibitors were administered daily via oral dosing at 10 mg/kg/day for 7 days starting 2 days prior to smoke exposure and continuing 1 day post-exposure. The effects of GSNOR inhibitors were assessed by quantitating the numbers of total cells, leukocytes, and leukocytes differentials in the BALF via light microscopy and the levels of BALF chemokines via ELISA at approximately 24 h after the last smoke exposure. The effect of GSNOR inhibitors were compared to vehicle treated controls. The PDE4 inhibitor, roflumilast, was used as the positive control for the study. A group of naïve mice (N=8) was exposed to air and used as a negative control for the study.

[4] = Mouse pharmacokinetic (PK) study; format: in vivo; conditions: male, BALB/c, plasma, po, 10 mg/kg, male BALB/c mice, 2 mg/kg IV, 10 mg/kg PO, read-out: oral bioavailability (% F)
Excerpt: The mouse was used to determine the pharmacokinetics of compounds of the invention. This species is widely used to assess the bioavailability of compounds by administering both oral (PO) and intravenous (IV) test articles. Efficacy of the compounds of the invention was compared by assessing plasma exposure in male BALB/c mice either via IV or PO administration at the times of peak activity.
Compounds of the invention were reconstituted in a phosphate buffered saline (PBS)/10% Solutol (HS 15) clear solution resulting in a concentration of 0.2 mg/mL and administered to mice (2 mg/kg) as a single IV dose. Animals were dosed via the lateral tail vein. Blood samples were collected at designated time points (0.083, 0.25, 0.5, 1, 2, 4, 8, 16, 24 hours) by cardiac puncture under isoflurane anesthesia (up to 1 mL blood per animal). The blood was collected into tubes containing Li-Heparin. The blood samples were kept on ice until centrifugation within approximately 30 minutes of collection. The plasma was transferred into labeled polypropylene tubes and frozen at −70° C. until analyzed by LC/MS/MS.
The compounds of the invention were reconstituted in 40% Propylene Glycol/40% Propylene Carbonate/20% of a 5% Sucrose clear solution resulting in a concentration of 2 mg/mL and administered to mice (10 mg/kg) as a single oral dose via gavage. Blood samples were collected at 0.25, 0.5, 1, 2, 4, 8, 12, 16, 20 and 24 hours post dose by cardiac puncture under isoflurane anesthesia. The blood was collected in tubes containing Li-Heparin. The blood samples were kept on ice until centrifugation within approximately 30 minutes of collection. The plasma was transferred into labeled polypropylene tubes and frozen at −70° C. until analyzed by LC/MS/MS.
Plasma samples at each timepoint were analyzed using a LC-MS/MS with a lower limit of quantification (LLOQ) of 1 ng/mL. Plasma was analyzed to determine the amount of the compound of the invention in each sample and regression curves generated for each compounds of the invention in the relevant matrixes.
WinNonlin analysis was used for calculating PK parameters for both the IV and PO administrations:
PK parameters for IV portion—AUClast; AUCINF; T1/2; Cl; Vss; Cmax; MRT
PK parameters for PO portion—AUClast; AUCINF; T1/2; Cmax; Cl, MRT.
In addition to the above PK parameters, bioavailability (% F) was calculated.

[5] = GSNOR inhibitor activity, Tables 1-6, read-out: IC50 range

T1 sequence (P11766 whole entry): as above

Q: With `O=C(O)c1ccc(Oc2c(C(F)(F)F)oc3cc(O)ccc3c2=O)cc1` [Compound V-1, 4-(7-hydroxy-4-oxo-2-(trifluoromethyl)-4H-chromen-3-yloxy)benzoic acid] as the molecule, how does the IC50 [1] read?
A: The IC50 was 100 to 1000 nM.

Q: And the “distance between the hydroxyl group and the carboxylic acid” value (GSNOR and NAD+)?
A: Its value is 12.34 Å.

Q: What does the source list for `O=C(O)c1ccc(-c2ccc3cc(O)ccc3n2)cc1` [Compound I-3]?
A: circulating inflammatory cytokines ([2]; oral 0.1, 1, or 10 mg/kg/day for 10 days): restored circulating inflammatory cytokines towards levels observed in untreated naïve mice; effects compared with prednisolone ([2]; prednisolone 3 mg/kg/day oral): comparable to or greater than those observed for prednisolone; IC50 [1, 5]: < 100 nM; effects compared with roflumilast [3]: comparable to or greater than those observed for roflumilast; BALF chemokines ([3]; oral 10 mg/kg/day for 7 days): restored BALF chemokines towards levels observed in naïve mice

Q: With `O=C(O)c1ccc(-c2c(C(F)(F)F)oc3cc(O)ccc3c2=O)cc1` [IV-10, 4-(7-hydroxy-4-oxo-2-(trifluoromethyl)-4H-chromen-3-yl)benzoic acid] as the molecule, how does the bioavailability [4] read?
A: Its bioavailability is greater than 9%.

Q: And the IC50 [1, 5]?
A: The IC50 was less than 100 nM.

Q: And the “distance between the hydroxyl group and the carboxylic acid” value (GSNOR and NAD+)?
A: The value was 12.07 Å.
